Data taken from the NIST ThermoML archive (doi:10.1016/j.fluid.2014.12.040).

Experiment: xn = mol fraction of the nth substance listed
Conditions: for surface tension liquid-gas: Wilhelmy-plate method; for mass density: 100 kPa, Liquid, Vibrating tube method

CC(O)CO (stereo not given) [1,2-propanediol] + CC(C)O
Conditions	mass density, 298.15 K [kg/m3]	mass density, 308.15 K [kg/m3]	surface tension liquid-gas, 298.15 K [mN/m]	surface tension liquid-gas, 308.15 K [mN/m]
x2 = 0	1032.69	1025.21	35.74	35.35
x2 = 0.05	1020.3	1012.75	32.86	32.56
x2 = 0.1	1007.84	1000.22	31.27	30.98
x2 = 0.15	995.3	987.63	30.1	29.77
x2 = 0.2	982.74	974.98	29.09	28.74
x2 = 0.25	970.17	962.34	28.21	27.85
x2 = 0.3	957.54	949.69	27.43	27.04
x2 = 0.35	944.87	936.95	26.72	26.31
x2 = 0.4	932.21	924.2	26.06	25.64
x2 = 0.45	919.52	911.47	25.43	25.01
x2 = 0.5	906.84	898.7	24.89	24.47
x2 = 0.55	894.16	885.97	24.39	23.94
x2 = 0.6	881.5	873.25	23.89	23.44
x2 = 0.65	868.82	860.56	23.43	22.95
x2 = 0.7	856.16	847.8	22.99	22.49
x2 = 0.75	843.49	835.09	22.58	22.04
x2 = 0.8	830.89	822.4	22.2	21.63
x2 = 0.85	818.33	809.75	21.82	21.21
x2 = 0.9	805.84	797.18	21.47	20.82
x2 = 0.95	793.45	784.7	21.12	20.43
